The source made the active and inactive calls. The calls are words filed in the database; no cut-off is given here.
How the values were obtained:
Mus musculus [1] = experiment: In vivo inhibition of CDK12/13 in Balb/c mouse xenografted with human SUM149PT cells assessed as reduction in ATM gene expression at 15 to 30 mg/kg, po administered once daily via gavage and measured at 4 hrs post-last drug dosage by qPCR analysis; format: functional, organism-based; details: dose 15-30 mg/kg
[2] = Cmax in female Sprague-Dawley rat at 7.5 mg/kg, po administered via gavage and measured on day 1; format: ADME, organism-based; details: in vivo, time 1 day
Cytochrome P450 3A4 = Cytochrome P450 3A4 (Homo sapiens, UniProt P08684); experiment: Inhibition of CYP3A4 in human liver microsomes assessed as inhibition of midazolam-1'-hydroxylation incubated for 10 mins in presence of NADPH by LC-MS/MS analysis; format: ADME, Microsome
[3] = Toxicity against female Sprague-Dawley rat assessed as body weight loss at 30 mg/kg, po administered once daily via gavage for 28 days and measured twice a week; format: organism-based; details: in vivo, 672 h, time 28 day
[4] = molecular target: Cyclin-dependent kinase 5/CDK5 activator 1 (Homo sapiens) (UniProt Q00535+Q15078); experiment: Inhibition of human recombinant N-terminal GST-tagged CDK5/N-terminal GST-tagged p35NCK expressed in HEP Sf9 cells using ATP as substrate at 2 uM measured after 60 mins by ADP-Glo reagent based luminescence analysis
[5] = AUC (0 to infinity) in Sprague-Dawley rat at 50 mg/kg, po by LC-MS/MS analysis; format: ADME, organism-based; details: in vivo
[6] = Toxicity against female Sprague-Dawley rat assessed as effect on sodium level in blood at 7.5 to 30 mg/kg, po administered once daily via gavage for 28 days and measured on day 29; format: organism-based; details: in vivo, 696 h, dose 7.5-30 mg/kg, time 29 day
[7] = Toxicity against female Sprague-Dawley rat assessed as effect on chlorine level in blood at 7.5 to 30 mg/kg, po administered once daily via gavage for 28 days and measured on day 29; format: organism-based; details: in vivo, 696 h, dose 7.5-30 mg/kg, time 29 day
[8] = Half life in female Sprague-Dawley rat at 30 mg/kg, po administered once daily via gavage for 28 days; format: ADME, organism-based; details: in vivo, time 28 day
[9] = molecular target: Cyclin-dependent kinase 12/13 (Homo sapiens) (UniProt Q14004+Q9NYV4); experiment: Covalent inhibition of CDK12/13 in human SUM149PT cells assessed as reduction in level of phosphorylation of Ser2 on RNA Pol II CTD at 500 nM incubated for 12 hrs followed by drug wash-out and measured after 72 hrs by western blot analysis; format: cell-based
[10] = molecular target: Cyclin-dependent kinase 7 (Homo sapiens) (UniProt P50613); experiment: Inhibition of CDK7 (unknown origin) at 5 uM by DiscoverX KinomeScan ScanMAX analysis
[11] = Protein binding in mouse plasma assessed as free fraction at 400 uM incubated for 4 hrs by equilibrium dialysis method based LC-MS/MS analysis; format: ADME, cell-free
HCT-116 = experiment: Antiproliferative activity against human HCT-116 cells assessed as reduction in cell viability incubated for 7 days by CellTiter-Glo reagent based luminescence analysis; format: functional; details: HCT-116, 168 h
CDK9/cyclin T1 = CDK9/cyclin T1 (Homo sapiens, UniProt P50750); experiment: Inhibition of human recombinant N-terminal GST-tagged CDK9/N-terminal GST-tagged and C-terminal 8X His-tagged Cyclin T1 expressed in HEP Sf9 cells using ATP as substrate measured after 60 mins by ADP-Glo reagent based luminescence assay
[12] = Toxicity against Balb/c mouse xenografted with human SUM149PT cells assessed as body weight at 30 to 60 mg/kg, po administered once daily via gavage and measured every 3 days for 3 weeks; format: organism-based; details: in vivo, 504 h, dose 30-60 mg/kg
Cytochrome P450 2C9 = Cytochrome P450 2C9 (Homo sapiens, UniProt P11712); experiment: Inhibition of CYP2C9 in human liver microsomes assessed as inhibition of diclofenac-4-hydroxylation incubated for 10 mins in presence of NADPH by LC-MS/MS analysis; format: ADME, Microsome
CDK7/Cyclin H/MNAT1 = CDK7/Cyclin H/MNAT1 (Homo sapiens, UniProt P50613); experiment: Inhibition of human recombinant N-terminal 6X His-tagged CDK7/CCNH/N-terminal 6X His-tagged MNAT1 expressed in HEP Sf9 cells using ATP as substrate measured after 60 mins by ADP-Glo reagent based luminescence assay
[13] = Cmax in Sprague-Dawley rat at 5 mg/kg, po measured for 24 hrs by LC-MS/MS analysis; format: ADME, organism-based; details: in vivo
[14] = Half life in male Sprague-Dawley rat at 40 mg/kg, po administered once daily via gavage for 28 days; format: ADME, organism-based; details: in vivo, time 28 day
[15] = Toxicity against Balb/c mouse xenografted with human MV4-11 cells assessed as effect on body weight at 15 to 30 mg/kg, po administered once daily via gavage and measured every 3 days for 3 weeks; format: organism-based; details: in vivo, 504 h, dose 15-30 mg/kg
[16] = AUC(0 to t) in male Sprague-Dawley rat at 10 mg/kg, po administered once daily via gavage for 28 days; format: ADME, organism-based; details: in vivo, 672 h, time 28 day
[17] = Cmax in Balb/c mouse xenografted with human MV4-11 cells at 30 mg/kg, po administered once daily via gavage; format: ADME, organism-based; details: in vivo
Mus musculus [18] = experiment: In vivo inhibition of CDK12/13 in Balb/c mouse xenografted with human SUM149PT cells assessed as reduction in phosphorylation of Ser2 on RNA Pol II at 15 to 30 mg/kg, po administered once daily via gavage and measured at 4 hrs post-last drug dosage by western blot analysis; format: functional, organism-based; details: dose 15-30 mg/kg
Caco-2 = experiment: Antiproliferative activity against human Caco-2 cells assessed as reduction in cell viability incubated for 7 days by CellTiter-Glo reagent based luminescence analysis; format: functional; details: Caco-2, 168 h
[19] = Cmax in female Sprague-Dawley rat at 30 mg/kg, po administered once daily via gavage for 28 days; format: ADME, organism-based; details: in vivo, time 28 day
[20] = Cmax in Balb/c mouse xenografted with human SUM149PT cells at 60 mg/kg, po administered once daily via gavage; format: ADME, organism-based; details: in vivo
[21] = Volume of distribution at steady state in CD-1 mouse at 1 mg/kg, iv measured for 24 hrs by LC-MS/MS analysis; format: ADME, organism-based; details: in vivo, read-out: Vdss
[22] = Toxicity against male Sprague-Dawley rat assessed as effect on glucose level in blood at 10 to 40 mg/kg, po administered once daily via gavage for 28 days and measured on day 29; format: organism-based; details: in vivo, 696 h, dose 10-40 mg/kg, time 29 day
[23] = molecular target: Cyclin-dependent kinase 13/Cyclin-K (Homo sapiens) (UniProt Q14004+O75909); experiment: Inhibition of human recombinant N-terminal GST-tagged CDK13/N-terminal FLAG and C-terminal His-tagged Cyclin K expressed in HEP Sf9 cells using ATP as substrate at 2 uM measured after 60 mins by ADP-Glo reagent based luminescence assay
[24] = Half life in male Sprague-Dawley rat at 40 mg/kg, po administered via gavage and measured on day 1; format: ADME, organism-based; details: in vivo, time 1 day
[25] = molecular target: Cyclin-Y/Cyclin-dependent kinase 16 (Homo sapiens) (UniProt Q00536+Q8ND76); experiment: Inhibition of human recombinant N-terminal GST-tagged CDK16/N-terminal GST-tagged Cyclin Y expressed in HEP Sf9 cells using ATP as substrate at 2 uM measured after 60 mins by ADP-Glo reagent based luminescence analysis
[26] = Half-life of the compound in human Plasma; format: ADME, cell-free

Chain of CDK9/cyclin T1 (O60563 whole entry): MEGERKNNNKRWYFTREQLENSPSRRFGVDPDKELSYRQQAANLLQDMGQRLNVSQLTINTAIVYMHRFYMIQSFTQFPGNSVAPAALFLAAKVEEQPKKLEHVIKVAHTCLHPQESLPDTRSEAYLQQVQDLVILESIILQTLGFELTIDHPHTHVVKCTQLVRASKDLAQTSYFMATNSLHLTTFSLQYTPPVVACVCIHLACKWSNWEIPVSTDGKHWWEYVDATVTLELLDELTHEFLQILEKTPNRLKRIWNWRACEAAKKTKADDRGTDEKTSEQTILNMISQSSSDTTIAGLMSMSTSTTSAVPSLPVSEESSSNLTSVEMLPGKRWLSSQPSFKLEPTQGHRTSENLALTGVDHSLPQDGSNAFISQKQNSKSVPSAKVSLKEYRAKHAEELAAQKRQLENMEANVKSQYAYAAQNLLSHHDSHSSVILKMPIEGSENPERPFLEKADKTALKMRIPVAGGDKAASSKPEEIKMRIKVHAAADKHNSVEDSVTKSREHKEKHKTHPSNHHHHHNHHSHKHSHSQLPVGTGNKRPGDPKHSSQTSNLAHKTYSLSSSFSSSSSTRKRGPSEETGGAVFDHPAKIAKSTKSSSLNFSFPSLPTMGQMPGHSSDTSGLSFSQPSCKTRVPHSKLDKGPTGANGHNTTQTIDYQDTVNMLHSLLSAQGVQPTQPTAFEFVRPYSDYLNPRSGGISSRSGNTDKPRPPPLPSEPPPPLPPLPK
Chain of CDK9/cyclin T1 (P50750 whole entry): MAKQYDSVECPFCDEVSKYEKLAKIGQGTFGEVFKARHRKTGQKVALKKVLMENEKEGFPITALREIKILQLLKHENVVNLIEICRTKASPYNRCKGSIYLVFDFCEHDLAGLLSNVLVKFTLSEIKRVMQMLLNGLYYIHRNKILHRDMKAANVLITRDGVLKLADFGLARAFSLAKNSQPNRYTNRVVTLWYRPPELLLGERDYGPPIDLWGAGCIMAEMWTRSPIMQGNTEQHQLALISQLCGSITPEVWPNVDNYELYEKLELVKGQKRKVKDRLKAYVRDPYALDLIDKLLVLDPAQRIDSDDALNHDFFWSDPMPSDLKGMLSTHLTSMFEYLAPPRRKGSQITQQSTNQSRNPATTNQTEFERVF
Chain of Cytochrome P450 3A4 (P08684 whole entry): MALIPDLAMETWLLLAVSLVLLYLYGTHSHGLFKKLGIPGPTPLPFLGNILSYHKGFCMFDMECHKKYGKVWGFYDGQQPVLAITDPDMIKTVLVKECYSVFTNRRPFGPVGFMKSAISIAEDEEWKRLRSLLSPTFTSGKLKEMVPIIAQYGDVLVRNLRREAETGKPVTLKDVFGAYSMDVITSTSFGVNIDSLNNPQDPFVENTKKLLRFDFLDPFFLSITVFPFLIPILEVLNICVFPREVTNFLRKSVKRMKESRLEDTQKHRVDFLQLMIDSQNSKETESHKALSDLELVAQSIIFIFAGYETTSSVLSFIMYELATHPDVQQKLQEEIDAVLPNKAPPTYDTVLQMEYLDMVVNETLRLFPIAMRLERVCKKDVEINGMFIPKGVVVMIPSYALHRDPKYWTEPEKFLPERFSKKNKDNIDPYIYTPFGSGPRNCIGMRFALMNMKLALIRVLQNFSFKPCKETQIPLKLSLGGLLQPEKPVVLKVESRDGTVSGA
Chain of Cyclin-dependent kinase 7 (Homo sapiens) (P50613 whole entry): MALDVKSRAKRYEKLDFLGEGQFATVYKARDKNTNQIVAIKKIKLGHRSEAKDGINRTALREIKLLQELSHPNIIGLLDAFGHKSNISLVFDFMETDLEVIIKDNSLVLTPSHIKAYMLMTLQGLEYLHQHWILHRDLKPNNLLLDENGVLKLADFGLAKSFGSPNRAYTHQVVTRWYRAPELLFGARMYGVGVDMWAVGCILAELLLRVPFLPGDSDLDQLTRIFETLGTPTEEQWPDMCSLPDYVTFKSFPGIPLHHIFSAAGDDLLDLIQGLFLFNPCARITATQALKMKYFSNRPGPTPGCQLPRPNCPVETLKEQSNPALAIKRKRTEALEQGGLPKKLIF
Chain of Cytochrome P450 2C9 (P11712 whole entry): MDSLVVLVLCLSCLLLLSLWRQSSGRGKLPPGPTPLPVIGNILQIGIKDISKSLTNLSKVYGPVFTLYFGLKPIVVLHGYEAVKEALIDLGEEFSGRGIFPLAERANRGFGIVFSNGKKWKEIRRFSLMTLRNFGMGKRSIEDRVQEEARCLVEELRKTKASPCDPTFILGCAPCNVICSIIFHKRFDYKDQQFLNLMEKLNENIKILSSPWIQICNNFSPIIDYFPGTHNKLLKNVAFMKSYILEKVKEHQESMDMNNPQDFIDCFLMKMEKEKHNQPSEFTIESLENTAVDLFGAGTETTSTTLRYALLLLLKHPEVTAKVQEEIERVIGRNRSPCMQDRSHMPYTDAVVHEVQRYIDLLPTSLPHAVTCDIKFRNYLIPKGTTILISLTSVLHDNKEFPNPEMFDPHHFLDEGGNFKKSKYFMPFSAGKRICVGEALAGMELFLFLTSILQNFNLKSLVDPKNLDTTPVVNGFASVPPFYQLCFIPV
Chain of CDK7/Cyclin H/MNAT1 (P51946 whole entry): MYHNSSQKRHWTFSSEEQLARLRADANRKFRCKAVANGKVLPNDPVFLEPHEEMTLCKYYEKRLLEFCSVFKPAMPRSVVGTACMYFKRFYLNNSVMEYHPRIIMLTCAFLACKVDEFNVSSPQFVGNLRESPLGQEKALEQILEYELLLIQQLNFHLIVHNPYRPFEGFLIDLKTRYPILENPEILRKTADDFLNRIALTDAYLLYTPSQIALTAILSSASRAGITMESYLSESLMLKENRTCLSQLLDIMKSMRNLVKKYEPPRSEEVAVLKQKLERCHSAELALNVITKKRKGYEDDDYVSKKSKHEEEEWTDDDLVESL
Chain of CDK7/Cyclin H/MNAT1 (P50613 whole entry): as the sequence (P50613 whole entry) above
Chain of CDK7/Cyclin H/MNAT1 (P51948 whole entry, further chain): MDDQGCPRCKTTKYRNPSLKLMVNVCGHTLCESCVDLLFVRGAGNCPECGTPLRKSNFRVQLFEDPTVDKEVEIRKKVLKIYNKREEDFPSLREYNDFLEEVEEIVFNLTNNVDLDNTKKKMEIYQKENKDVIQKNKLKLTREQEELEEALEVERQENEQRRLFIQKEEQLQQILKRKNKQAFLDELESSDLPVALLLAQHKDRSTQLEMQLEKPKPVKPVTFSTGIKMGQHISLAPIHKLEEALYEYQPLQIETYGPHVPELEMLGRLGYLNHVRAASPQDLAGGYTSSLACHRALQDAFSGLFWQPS
Chain of Cyclin-dependent kinase 5/CDK5 activator 1 (Homo sapiens) (Q00535 whole entry): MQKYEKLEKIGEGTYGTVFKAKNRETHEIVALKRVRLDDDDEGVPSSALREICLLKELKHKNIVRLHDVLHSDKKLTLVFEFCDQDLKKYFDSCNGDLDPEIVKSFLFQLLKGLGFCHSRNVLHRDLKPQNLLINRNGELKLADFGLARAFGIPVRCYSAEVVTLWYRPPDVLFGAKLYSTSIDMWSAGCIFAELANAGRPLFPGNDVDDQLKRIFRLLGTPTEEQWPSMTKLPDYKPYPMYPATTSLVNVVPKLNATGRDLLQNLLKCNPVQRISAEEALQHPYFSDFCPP
Chain of Cyclin-dependent kinase 5/CDK5 activator 1 (Homo sapiens) (Q15078 99-307 partner limits assumed): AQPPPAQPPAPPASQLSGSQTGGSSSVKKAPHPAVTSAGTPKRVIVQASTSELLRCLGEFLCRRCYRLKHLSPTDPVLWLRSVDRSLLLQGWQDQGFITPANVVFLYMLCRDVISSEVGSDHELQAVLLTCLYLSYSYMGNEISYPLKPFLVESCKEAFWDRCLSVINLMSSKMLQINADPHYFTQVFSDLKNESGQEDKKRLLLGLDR

## C=CC(=O)N1CCc2c(ncnc2N2CC[C@@H](Nc3ncc(Cl)c(OC)n3)C2)C1
Mus musculus [1]
  inhibition: Active
[2]
  Cmax: 870 ng/mL
Cytochrome P450 3A4
  IC50: > 50000 nM
[3]
  Activity: Toxic
[4]
  inhibition: 62%
[5]
  AUC(0-inf): 6690 ng·h/mL
[6]
  Activity: Non-toxic
[7]
  Activity: Non-toxic
[8]
  half-life: 4.5 h
[9]
  inhibition: Active
[10]
  inhibition: Active
[11]
  fraction unbound at 4 h, 400 µM: 0.075
HCT-116
  IC50: 128 nM
CDK9/cyclin T1
  IC50: 641 nM
[12]
  Activity: Non-toxic
Cytochrome P450 2C9
  IC50: > 50000 nM
CDK7/Cyclin H/MNAT1
  IC50: 204 nM
[13]
  Cmax: 808 ng/mL
[14]
  half-life: 6.9 h
[15]
  Activity: Non-toxic
[16]
  AUCt: 1330 ng·h/mL
[17]
  Cmax: 1350 ng/mL
Mus musculus [18]
  inhibition: Active
Caco-2
  IC50: 122 nM
[19]
  Cmax: 1690 ng/mL
[20]
  Cmax: 3300 ng/mL
[21]
  Vd: 0.87 L/kg
[22]
  Activity: Non-toxic
[23]
  inhibition: 83%
[24]
  half-life: 6.2 h
[25]
  inhibition: 64%
[26]
  half-life: > 4.82 h

Reference: ChEMBL document CHEMBL6153137, “Design, Synthesis, and Biological Evaluation of Novel Orally Available Covalent CDK12/13 Dual Inhibitors for the Treatment of Tumors” (J Med Chem, 2025)
